Results: patent US4843077A, “Isoquinoline derivatives having renal vasodilating properties and/or cardiotonic properties and/or phosphodiesterase inhibiting properties” (Ortho Pharmaceutical Corporation, priority 1987, dated 1989)
Where two headings read alike, the source gives them in different places.

Tests used:
[1] = target: phosphodiesterase fraction III; assay: Inhibition of phosphodiesterase fraction III activity; assay type: biochemical; details: cyclic AMP substrate 0.01-1.0 micromolar, pH 7.4, fraction III enzyme from canine heart
renal vasculature = assay: Renal vasodilating activity in anesthetized dogs; assay type: in vivo, adult mongrel dogs; details: Canis lupus familiaris
Description: The following procedure is a variation of the assay described in that report.
Adult mongrel dogs were anesthetized and surgically prepared for electromagnetic measurement of renal artery blood flow. A carotid artery was cannulated for measuring arterial blood pressure and drugs were administered intravenously or intraarterially (via the renal artery). Heart rate was monitored with a cardiotachometer. Renal vascular resistance was calcualted as the ratio of mean arterial blood pressure to renal artery blood flow. Dopamine was infused intravenously at 3 μg/kg/min for ten minutes (at an infusion rate of about 1 ml/min) to determine responsiveness of each dog to renal dopamine receptor stimulation. Cumulative dose-response data were obtained by infusing a compound of this invention at progressively increasing (usually three-fold) infusion rates, each dose being infused for five minutes. The maximum percent change from pre-drug control in renal artery blood flow (or in renal vascular resistance) was determined for each infusion dose.

cardiac muscle = assay: Acute in vivo cardiotonic activity in anesthetized dogs; design: species or system adult mongrel dogs; details: anesthetized dog, relative to control
Description: The acute in vivo cardiotonic activity of compounds prepared according to the present invention was determined according to a modification of the procedure described by Alousi et al., Circ. Res., 45, 666 (1979).
In particular, adult mongrel dogs were anesthetized with sodium pentobarbital and were artificially respired. Arterial pressure was monitored via a femoral artery, and the pulse pressure was used to trigger a cardiotachometer for heart rate. Left ventricular pressure was determined with a Millar catheter, and dP/dT (the change in ventricular pressure with time) was derived. Cardiac output was determined by measuring ascending aortic blood flow with an electromagnetic flow probe, and myocardial contractile foorce was measured with a Walton Brodie strain gauge sutured to the right ventricle. Lead II EKG was also recorded.
A standard dose (10 μg/kg/min) of dopamine was administered to assess myocardial responsiveness.
Compounds of the invention were administered by intravenous infusion and the effects on cardiovascular parameters were determined.
Dose related effects of the test compound on heart rate (HR), maximum change in left ventricular pressure with time (dP/dT), percent change in cardiac force (CF) and the change in mean arterial blood pressure (MABP) were compared to pretreatment control values and expressed as a percent change.

[2] = iv, read-out: RVR, percent change in renal vascular resistance
[3] = anesthetized dog, dose 6.2 mpk iv, relative to control, read-out: HR, percent change in heart rate
[4] = anesthetized dog, dose 6.2 mpk iv, relative to control, read-out: MABP, percent change in mean arterial blood pressure
[5] = anesthetized dog, dose 6.2 mpk iv, relative to control, read-out: RBF, percent change in renal blood flow
[6] = total dose 1.875 mpk iv infusion
[7] = iv, read-out: HR, percent change in heart rate
[8] = anesthetized dog, dose 1.2 mpk iv, relative to control, read-out: HR, percent change in heart rate
[9] = anesthetized dog, dose 1.2 mpk iv, relative to control, read-out: MABP, percent change in mean arterial blood pressure
[10] = anesthetized dog, dose 1.2 mpk iv, relative to control, read-out: RBF, percent change in renal blood flow
[11] = anesthetized dog, dose 1.2 mpk iv, relative to control, read-out: RVR, percent change in renal vascular resistance
[12] = total dose 1.938 mpk iv infusion

SMILES: CNc1nc(C)c2cc(OC)c(OC)cc2c1[N+](=O)[O-] [Cmpd 2]
- IC50 [1]: 265 µM

SMILES: CCCCNc1nc(C)c2cc(OC)c(OC)cc2c1[N+](=O)[O-] [Cmpd 3, 3-(n-Butylamino)-6,7-dimethoxy-1-methyl-4-nitroisoquinoline]
- IC50 [1]: 250 µM

SMILES: COc1cc2c(C)nc(NCc3ccccc3)c([N+](=O)[O-])c2cc1OC [Cmpd 4]
- change in vivo at 6.2 mg/kg (renal vasculature; [2]): -14%
- change in vivo at 6.2 mg/kg (renal vasculature; [3]): -15%
- change in vivo at 6.2 mg/kg (renal vasculature; [4]): -6%
- change in vivo at 6.2 mg/kg (renal vasculature; [5]): 9%

SMILES: CCN(CC)CCNc1nc(C)c2cc(OC)c(OC)cc2c1[N+](=O)[O-] [Cmpd 6]
- CF, percent change in cardiac force (cardiac muscle; [6]): 40 percent change
- HR, percent change in heart rate (cardiac muscle; [6]): -6 percent change
- MABP, percent change in mean arterial blood pressure (cardiac muscle; [6]): 4 percent change
- dP/dt, maximum percent change in left ventricular pressure with time (cardiac muscle; [6]): 52 percent change

SMILES: COc1cc2c(C)nc(NCCN3CCN(c4ccccc4OC)CC3)c([N+](=O)[O-])c2cc1OC [Cmpd 8]
- change in vivo at 0.3 mg/kg (renal vasculature; [7]): -6%
- change in vivo at 0.3 mg/kg (renal vasculature; anesthetized dog, dose 0.3 mpk iv, relative to control, read-out: MABP, percent change in mean arterial blood pressure): -20%
- change in vivo at 0.3 mg/kg (renal vasculature; anesthetized dog, dose 0.3 mpk iv, relative to control, read-out: RBF, percent change in renal blood flow): 10%
- change in vivo at 0.3 mg/kg (renal vasculature; anesthetized dog, dose 0.3 mpk iv, relative to control, read-out: RVR, percent change in renal vascular resistance): -27%

SMILES: COc1cc2c(C)nc(NC3CCN(Cc4ccccc4)CC3)c([N+](=O)[O-])c2cc1OC [Cmpd 11]
- change in vivo at 6.2 mg/kg (renal vasculature; [2]): -28%
- change in vivo at 6.2 mg/kg (renal vasculature; [3]): -16%
- change in vivo at 6.2 mg/kg (renal vasculature; [4]): -13%
- change in vivo at 6.2 mg/kg (renal vasculature; [5]): 28%
- IC50 [1]: 120 µM

SMILES: COc1cc2c(C)nc(Nc3ccccc3)c([N+](=O)[O-])c2cc1OC [Cmpd 12]
- change in vivo at 6.2 mg/kg (renal vasculature; [2]): -32%
- change in vivo at 6.2 mg/kg (renal vasculature; [3]): 2%
- change in vivo at 6.2 mg/kg (renal vasculature; [4]): -3%
- change in vivo at 6.2 mg/kg (renal vasculature; [5]): 42%
- IC50 [1]: 250 µM

SMILES: COc1cc2c(C)nc(N(C)C)c([N+](=O)[O-])c2cc1OC [Cmpd 13, 6,7-Dimethoxy-1-methyl-3-(N,N-dimethyl)amino-4-nitroisoquinoline]
- change in vivo at 1.2 mg/kg (renal vasculature; [8]): 17%
- change in vivo at 1.2 mg/kg (renal vasculature; [9]): 16%
- change in vivo at 1.2 mg/kg (renal vasculature; [10]): 60%
- change in vivo at 1.2 mg/kg (renal vasculature; [11]): -23%
- IC50 [1]: 10 µM

SMILES: CCN(C)c1nc(C)c2cc(OC)c(OC)cc2c1[N+](=O)[O-] [Cmpd 14]
- CF, percent change in cardiac force (cardiac muscle; [12]): 21 percent change
- HR, percent change in heart rate (cardiac muscle; [12]): 8 percent change
- MABP, percent change in mean arterial blood pressure (cardiac muscle; [12]): 6 percent change
- dP/dt, maximum percent change in left ventricular pressure with time (cardiac muscle; [12]): 20 percent change
- IC50 [1]: 25 µM

SMILES: CCN(CC)c1nc(C)c2cc(OC)c(OC)cc2c1[N+](=O)[O-] [Cmpd 15]
- change in vivo at 6.2 mg/kg (renal vasculature; [3]): 4%
- change in vivo at 6.2 mg/kg (renal vasculature; [4]): 0%
- change in vivo at 6.2 mg/kg (renal vasculature; [5]): 8%
- change in vivo at 6.2 mg/kg (renal vasculature; anesthetized dog, dose 6.2 mpk iv, relative to control, read-out: RVR, percent change in renal vascular resistance): -8%

SMILES: CCN(CCN(C)C)c1nc(C)c2cc(OC)c(OC)cc2c1[N+](=O)[O-] [Cmpd 16]
- IC50 [1]: 300 µM

SMILES: COc1cc2c(C)nc(N3CCN(c4ccccc4)CC3)c([N+](=O)[O-])c2cc1OC [Cmpd 19]
- change in vivo at 6.2 mg/kg (renal vasculature; [2]): -18%
- change in vivo at 6.2 mg/kg (renal vasculature; [3]): -5%
- change in vivo at 6.2 mg/kg (renal vasculature; [4]): 6%
- change in vivo at 6.2 mg/kg (renal vasculature; [5]): 30%
- IC50 [1]: 150 µM

SMILES: COc1cc2c(C)nc(N(C)c3ccccc3)c([N+](=O)[O-])c2cc1OC [Cmpd 21]
- IC50 [1]: 220 µM

SMILES: CCCCSc1nc(C)c2cc(OC)c(OC)cc2c1[N+](=O)[O-] [Cmpd 23, 3-(n-Butylthio)-6,7-dimethoxy-1-methyl-4-nitroisoquinoline]
- change in vivo at 6.2 mg/kg (renal vasculature; iv, read-out: MABP, percent change in mean arterial blood pressure): -1%
- change in vivo at 6.2 mg/kg (renal vasculature; [2]): -15%
- change in vivo at 6.2 mg/kg (renal vasculature; [3]): 4%
- change in vivo at 6.2 mg/kg (renal vasculature; [5]): 16%
- IC50 [1]: 280 µM

SMILES: COc1cc2c(C)nc(Nc3ccccc3)c(N)c2cc1OC [Cmpd 25, 4-amino-6,7-dimethoxy-1-methyl-3-[(N-phenyl)amino]isoquinoline]
- IC50 [1]: 68 µM

SMILES: COc1cc2c(C)nc(N(C)C)c(N)c2cc1OC [Cmpd 26, 4-Amino-6,7-dimethoxy-3-(N,N-dimethyl)amino-1-methylisoquinoline]
- IC50 [1]: 14 µM

SMILES: CCCCNC(=O)Nc1c(Nc2ccccc2)nc(C)c2cc(OC)c(OC)cc12 [Cmpd 27]
- change in vivo at 1.2 mg/kg (renal vasculature; [7]): -6%
- change in vivo at 1.2 mg/kg (renal vasculature; [9]): 8%
- change in vivo at 1.2 mg/kg (renal vasculature; [10]): 7%
- change in vivo at 1.2 mg/kg (renal vasculature; [11]): 1%

SMILES: CCCCNC(=O)Nc1c(N(C)C)nc(C)c2cc(OC)c(OC)cc12 [Cmpd 28]
- CF, percent change in cardiac force (cardiac muscle; [6]): 20 percent change
- HR, percent change in heart rate (cardiac muscle; [6]): 2 percent change
- MABP, percent change in mean arterial blood pressure (cardiac muscle; [6]): 2 percent change
- dP/dt, maximum percent change in left ventricular pressure with time (cardiac muscle; [6]): 16 percent change
- IC50 [1]: 300 µM

SMILES: C=CCNC(=O)Nc1c(N(C)C)nc(C)c2cc(OC)c(OC)cc12 [Cmpd 30]
- change in vivo at 1.2 mg/kg (renal vasculature; [2]): -9%
- change in vivo at 1.2 mg/kg (renal vasculature; [8]): 3%
- change in vivo at 1.2 mg/kg (renal vasculature; [9]): 1%
- change in vivo at 1.2 mg/kg (renal vasculature; [10]): 12%
- IC50 [1]: 280 µM
